Test results published in patent US20220227796A1, “EGFR INHIBITORS, COMPOSITIONS AND METHODS THERE OF” (Betta Pharmaceuticals Co., Ltd., priority 2019, published 2022).
Where a name gives a salt, the structure may show the parent alone.

Legend:
[1] = target: EGFR Δ19del/T790M/C797S (Homo sapiens, UniProt P00533, T790M/C797S, form not given); assay: Kinase assay (mobility shift) for EGFR Δ19del/T790M/C797S; format: biochemical; conditions: read-out: EGFR Δ 19del/T790M/C797S IC50
Procedure: (§1) Enzyme reaction protocol are as followed:
(§2) 1. Preparing 1* Kinase buffer as followed.
(§3) 2. Preparing Compound Concentration Gradient: Compounds were tested at a concentration of 300 nM, diluted to 100-fold final concentration in 100% DMSO solution in 96-well plates, and compounds were diluted 3 times with Precision, 10 concentrations. Each concentration of the compound was then further diluted to a 5-fold final concentration of the intermediate dilution solution using 1* Kinase buffer.
(§4) 3. 5 μL of each of the prepared intermediate dilution compounds was separately added to the compound wells of the 384-well plate, and each concentration was tested for duplicate wells; 5 μL of 5% DMSO was added to the negative control wells and the positive control wells, respectively.
(§5) 4. 2.5-fold final concentration of the kinase solution was prepared using 1*Kinase buffer.
(§6) 6. Centrifuge at 1000 rpm for 30 seconds, shake the reaction plate and incubate for 10 minutes at room temperature.
(§7) 8. 10 μL of a 2.5-fold final concentration of a mixed solution of ATP and a substrate was added to initiate the reaction.
(§8) 9. Centrifuge the 384-well plate at 1000 rpm for 30 seconds, mix by shaking, and incubate at room temperature for the corresponding time.
(§9) 10. Add 30 μL of the stop solution to stop the kinase reaction, centrifuge at 1000 rpm for 30 seconds, and mix by shaking.
(§10) 11. Read the conversion rate with Caliper EZ Reader.
(§11) Convert conversion values to inhibition values:
(§12) Percent inhibition=(max−conversion % sample)/(max−min)*100.
(§13) “max” stands for the mean value of the positive control well ratio; “min” stands for the mean value of the negative control well; conversion % sample: sample conversion reading.
(§14) Fit the data in log(inhibitor) vs. response Variable slope of GraphPad Prism 5 to obtain IC50 values.
(§15) Equation used is: Y=Bottom+(Top−Bottom)/(1+(IC50/X)*HillSlope)

[2] = target: EGFR L858R (Homo sapiens, UniProt P00533, L858R); assay: Kinase assay (mobility shift) for EGFR L858R; format: biochemical
Procedure: as §1, §2, §3, §4, §5, §6, §7, §8, §9, §10, §11, §12, §13, §14, §15

[3] = target: Ba/F3-Δ19del/T790M/C797S (Homo sapiens, UniProt P00533, T790M/C797S, cells depend on it, form not given); assay: Ba/F3-Δ19del/T790M/C797S cells proliferation assay; format: cell-based; conditions: cell proliferation, 72 h, CellTiter Glo; class symbols; read-out: BaF3 Δ 19del/T790M/C797S IC50
Procedure: (§16) a) The medium was preheated in a 37 water bath in advance.
(§17) b) Remove the cryogenic vials from the liquid nitrogen tank, quickly put it into a 37° C. water bath, and completely melt it in 1 min.
(§18) c) Transfer the cell suspension to a 15 mL centrifuge tube containing 8 mL medium, centrifuge 1000 rpm, 5 min,
(§19) d) Discard the supernatant, resuspend the cells in 1 mL medium, and transfer to a 75 cm^2 flask containing 15 mL medium, culture the cells in an incubator at 37° C., 5% CO2.
(§20) a) The medium was preheated in a 37° C.; water bath in advance.
(§21) b) Collect cell to a 15 mL centrifuged tube, centrifuge at 1000 rpm for 5 min. Discard the supernatant, count, and make the cell density at 1×10^4 cells/mL, then place it in a 37° C., 5% CO2 incubator.
(§22) b) The above compound solution was diluted 1:20 times with culture medium to prepare a 10 fold working solution;
(§23) a) Take cells in log phase growth, centrifuge at 1000 rpm for 5 min, then resuspend the cells with culture medium, then count cells;
(§24) b) Cells were seeded to 96-well cell culture plate with density at 2000 cells/well;
(§25) The blank control well was a culture medium (0.5% DMSO);
(§26) b) The cells were incubated for an additional 72 h in the incubator.
(§27) a) Remove the 96-well cell culture plate and add 50 μl of CTG reagent (CellTiter Glo kit, promega, Cat #G7573).
(§28) b) Plate was shaked for 2 min and then let it cool for 10 min at room temperature.
(§29) c) The Luminescence signal value was read using a PerkinElmer reader.
(§30) Experimental Data Analysis
(§31) Data were analyzed using GraphPad Prism 6.0 software to obtain a fitted curve of compound activity.
(§32) Y=Bottom+(Top−Bottom)/(1+10^((Log IC50−X)*Hill Slope));
(§33) The cells proliferation assay results are expressed with IC50, shown as Table 2.

[4] = target: EGFR T790M/L858R (Homo sapiens, UniProt P00533, L858R/T790M); assay: Kinase assay (mobility shift) for EGFR T790M/L858R; format: biochemical
Procedure: as §1, §2, §3, §4, §5, §6, §7, §8, §9, §10, §11, §12, §13, §14, §15

[5] = system: HCC827(Δ19del); assay: HCC827 cells proliferation assay; format: cell-based; conditions: Homo sapiens, HCC827; cell proliferation, 72 h, CellTiter Glo; class symbols; read-out: HCC827 IC50
Procedure: (§34) Test 3 H1975 and HCC827 Cells Proliferation Assay
(§35) a) The medium was preheated in a 37° C. water bath in advance.
as §17
(§36) c) Transfer the cell suspension to a 15 mL centrifuge tube containing 8 mL medium, centrifuge 1000 rpm, 5 min.
as §19, §21, §22, §23
(§37) b) Cells were seeded to 96-well cell culture plate with density at 2000 cells/well (suitable for H1975 cell) and at 2500 cells/well (suitable for HCC827 cell);
as §25, §26, §27, §28, §29, §30, §31
(§38) Y=Bottom+(Top−Bottom)/(1+10^((Log IC50−X)*HillSlope));
as §33

[6] = system: H1975(L858R/T790M); assay: H1975 cells proliferation assay; format: cell-based; conditions: Homo sapiens, NCI-H1975; cell proliferation, 72 h, CellTiter Glo; class symbols; read-out: H1975 IC50
Procedure: as §34, §35, §17, §36, §19, §21, §22, §23, §37, §25, §26, §27, §28, §29, §30, §31, §38, §33

[7] = target: T1, Ba/F3-L858R/T790M/C797S (Homo sapiens, UniProt P00533, T790M/C797S/L858R, cells depend on it); assay: Ba/F3-L858R/T790M/C797S cells proliferation assay; format: cell-based; conditions: cell proliferation, 72 h, CellTiter Glo; class symbols; read-out: BaF3 L858R/T790M/C797S IC50
T1 construct: BaF3 L858R/T790M/C797S IC50; other: cell proliferation, 72 h, CellTiter Glo; class symbols; numeric values
Procedure: as §16, §17, §18, §19, §20, §21, §22, §23, §24, §25, §26, §27, §28, §29, §30, §31, §32, §33

Ba/F3-Δ19del/T790M/C797S, sequence (P00533 with tags, fused parts or gaps DEL746-750/T790M/C797S, form open): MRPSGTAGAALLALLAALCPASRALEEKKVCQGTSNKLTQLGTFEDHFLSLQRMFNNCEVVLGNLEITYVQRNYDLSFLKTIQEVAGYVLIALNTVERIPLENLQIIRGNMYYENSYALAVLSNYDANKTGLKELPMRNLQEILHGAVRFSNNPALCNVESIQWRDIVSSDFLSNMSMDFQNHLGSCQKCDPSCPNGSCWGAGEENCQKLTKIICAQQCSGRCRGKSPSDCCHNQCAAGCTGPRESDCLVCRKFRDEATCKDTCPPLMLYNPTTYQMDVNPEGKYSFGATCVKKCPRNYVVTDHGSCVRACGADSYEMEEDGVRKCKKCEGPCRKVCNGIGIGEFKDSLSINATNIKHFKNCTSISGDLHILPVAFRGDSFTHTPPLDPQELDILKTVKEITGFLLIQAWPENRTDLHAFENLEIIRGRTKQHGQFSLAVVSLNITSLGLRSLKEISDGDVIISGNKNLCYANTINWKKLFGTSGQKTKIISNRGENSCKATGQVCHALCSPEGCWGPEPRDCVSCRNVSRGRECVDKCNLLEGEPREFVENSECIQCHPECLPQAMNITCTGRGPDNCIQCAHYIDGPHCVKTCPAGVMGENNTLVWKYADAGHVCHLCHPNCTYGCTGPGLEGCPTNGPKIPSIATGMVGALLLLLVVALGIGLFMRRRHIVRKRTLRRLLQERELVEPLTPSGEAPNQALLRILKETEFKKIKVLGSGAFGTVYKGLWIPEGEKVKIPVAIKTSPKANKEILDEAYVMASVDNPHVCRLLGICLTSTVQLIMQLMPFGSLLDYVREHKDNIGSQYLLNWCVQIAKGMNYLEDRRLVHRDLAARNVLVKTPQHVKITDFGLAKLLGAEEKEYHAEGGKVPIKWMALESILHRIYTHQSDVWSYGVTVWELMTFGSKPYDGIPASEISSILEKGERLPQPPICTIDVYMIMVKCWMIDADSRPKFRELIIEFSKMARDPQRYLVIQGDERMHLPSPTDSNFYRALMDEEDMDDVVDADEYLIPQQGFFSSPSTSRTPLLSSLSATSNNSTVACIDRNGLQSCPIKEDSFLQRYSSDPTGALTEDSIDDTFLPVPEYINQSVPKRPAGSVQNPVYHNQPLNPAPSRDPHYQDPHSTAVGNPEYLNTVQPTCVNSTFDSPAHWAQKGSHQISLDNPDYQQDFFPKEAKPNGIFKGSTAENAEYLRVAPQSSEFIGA
EGFR Δ19del/T790M/C797S, sequence (P00533 with tags, fused parts or gaps DEL746-750/T790M/C797S, form open): as above
EGFR L858R, sequence (P00533 25-1210 L858R): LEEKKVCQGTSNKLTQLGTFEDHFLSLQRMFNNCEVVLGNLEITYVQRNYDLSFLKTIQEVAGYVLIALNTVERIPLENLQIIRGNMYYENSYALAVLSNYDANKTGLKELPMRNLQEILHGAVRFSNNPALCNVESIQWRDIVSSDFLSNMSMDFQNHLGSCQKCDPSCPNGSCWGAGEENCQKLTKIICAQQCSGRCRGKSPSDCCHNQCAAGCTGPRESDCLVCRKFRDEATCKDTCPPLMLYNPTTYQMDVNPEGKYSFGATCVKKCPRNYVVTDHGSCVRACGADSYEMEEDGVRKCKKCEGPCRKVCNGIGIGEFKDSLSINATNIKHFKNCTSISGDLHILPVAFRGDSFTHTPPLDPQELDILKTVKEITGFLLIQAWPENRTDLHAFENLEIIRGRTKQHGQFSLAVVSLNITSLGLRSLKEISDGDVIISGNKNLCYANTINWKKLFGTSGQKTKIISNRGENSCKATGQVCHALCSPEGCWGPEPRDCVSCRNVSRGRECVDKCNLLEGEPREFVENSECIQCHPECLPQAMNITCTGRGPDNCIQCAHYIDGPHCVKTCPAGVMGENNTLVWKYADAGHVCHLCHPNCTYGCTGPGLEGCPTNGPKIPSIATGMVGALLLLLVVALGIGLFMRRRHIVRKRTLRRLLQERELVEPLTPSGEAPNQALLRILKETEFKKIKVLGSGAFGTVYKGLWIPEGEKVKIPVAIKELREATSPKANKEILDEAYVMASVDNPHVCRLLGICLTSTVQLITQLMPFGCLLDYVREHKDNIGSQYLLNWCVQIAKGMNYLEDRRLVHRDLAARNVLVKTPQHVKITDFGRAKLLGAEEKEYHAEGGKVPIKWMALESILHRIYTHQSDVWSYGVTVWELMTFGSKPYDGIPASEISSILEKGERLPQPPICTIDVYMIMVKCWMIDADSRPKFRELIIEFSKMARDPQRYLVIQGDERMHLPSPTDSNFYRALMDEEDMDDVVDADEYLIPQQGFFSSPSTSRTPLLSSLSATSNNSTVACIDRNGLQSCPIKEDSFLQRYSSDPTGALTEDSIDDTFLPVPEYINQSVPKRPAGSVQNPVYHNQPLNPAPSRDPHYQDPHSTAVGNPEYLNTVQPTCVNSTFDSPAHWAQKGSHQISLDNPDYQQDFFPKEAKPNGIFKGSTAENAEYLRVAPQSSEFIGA
T1 sequence (P00533 whole entry T790M/C797S/L858R): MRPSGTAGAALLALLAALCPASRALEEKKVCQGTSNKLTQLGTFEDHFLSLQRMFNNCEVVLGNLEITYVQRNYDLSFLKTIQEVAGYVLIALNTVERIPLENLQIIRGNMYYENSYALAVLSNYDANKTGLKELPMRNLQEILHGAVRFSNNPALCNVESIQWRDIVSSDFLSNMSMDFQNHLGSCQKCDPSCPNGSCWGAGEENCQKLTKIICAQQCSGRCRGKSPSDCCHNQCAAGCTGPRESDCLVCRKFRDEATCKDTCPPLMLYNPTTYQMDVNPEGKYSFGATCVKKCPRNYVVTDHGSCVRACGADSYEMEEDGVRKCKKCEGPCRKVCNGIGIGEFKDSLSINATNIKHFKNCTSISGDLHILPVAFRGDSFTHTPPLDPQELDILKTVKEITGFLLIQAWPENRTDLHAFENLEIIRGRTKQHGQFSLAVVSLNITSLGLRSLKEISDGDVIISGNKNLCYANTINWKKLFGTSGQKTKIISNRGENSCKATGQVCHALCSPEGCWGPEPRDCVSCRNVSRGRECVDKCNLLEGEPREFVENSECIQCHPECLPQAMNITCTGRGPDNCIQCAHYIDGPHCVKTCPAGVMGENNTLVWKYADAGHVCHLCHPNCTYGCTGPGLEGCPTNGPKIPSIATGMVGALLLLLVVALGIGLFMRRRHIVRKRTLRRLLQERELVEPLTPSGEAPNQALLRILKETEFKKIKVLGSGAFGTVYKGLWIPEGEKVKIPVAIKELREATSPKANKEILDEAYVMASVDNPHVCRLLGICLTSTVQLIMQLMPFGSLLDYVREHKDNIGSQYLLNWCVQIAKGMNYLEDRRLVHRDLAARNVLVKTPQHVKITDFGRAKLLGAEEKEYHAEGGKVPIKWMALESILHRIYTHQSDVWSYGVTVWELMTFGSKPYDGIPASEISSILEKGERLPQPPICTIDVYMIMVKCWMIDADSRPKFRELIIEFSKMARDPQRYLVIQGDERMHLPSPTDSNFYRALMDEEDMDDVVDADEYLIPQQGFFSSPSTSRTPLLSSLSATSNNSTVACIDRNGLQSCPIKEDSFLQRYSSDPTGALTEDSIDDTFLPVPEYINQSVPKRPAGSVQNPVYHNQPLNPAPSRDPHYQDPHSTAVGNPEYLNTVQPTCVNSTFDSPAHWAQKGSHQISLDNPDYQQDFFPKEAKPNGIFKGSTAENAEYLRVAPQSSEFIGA

Compound | IC50 [1] [µM] | IC50 [2] [µM] | GI50 [3] [µM] | IC50 [4] [µM] | IC50 [5] [µM] | IC50 [6] [µM] | GI50 [7] [µM]
C=CC(=O)Nc1cc(Nc2ncc(C)c(Nc3ccccc3P(C)(C)=O)n2)ccc1N(C)CCN(C)C [Compound 19, N-(2-((2-(dimethylamino)ethyl)(methyl)amino)-5-((4-((2-(dimethylphosphoryl)phenyl)amino)-5-methylpyrimidin-2-yl)amino)phenyl)acrylamide hydrochloric acid salt] | < 0.01 | < 0.01 | 0.01 to 0.05 | < 0.01 | < 0.01 | 0.01 to 0.05 | –
C=CC(=O)Nc1cc(Nc2ncc(Cl)c(Nc3ccc4nccnc4c3P(C)(C)=O)n2)c(OC)cc1N1CCC2(CC1)CC(N(C)C)C2 [Compound 11, N-(5-((5-chloro-4-((5-(dimethylphosphoryl)quinoxalin-6-yl)amino)pyrimidin-2-yl)amino)-2-(2-(dimethylamino)-7-azaspiro[3.5]nonan-7-yl)-4-methoxyphenyl)acrylamide] | < 0.01 | – | 0.01 to 0.05 | – | 0.01 to 0.05 | 0.01 to 0.05 | –
C=C(F)C(=O)Nc1cc(Nc2ncc(Cl)c(Nc3ccccc3P(C)(C)=O)n2)ccc1N1CCC2(CC1)CC(N(C)C)C2 [Compound 9, N-(5-((5-chloro-4-((2-(dimethylphosphoryl)phenyl)amino)pyrimidin-2-yl)amino)-2-(2-(dimethylamino)-7-azaspiro[3.5]nonan-7-yl)phenyl)-2-fluoroacrylamide] | < 0.01 | – | 0.01 to 0.05 | – | – | – | 0.01 to 0.05
C=CC(=O)Nc1cc(Nc2ncc(F)c(Nc3ccccc3P(C)(C)=O)n2)ccc1N1CCC(N2CCN(C)CC2)CC1 [Compound 29, N-(5-((4-((2-(dimethylphosphoryl)phenyl)amino)-5-fluoropyrimidin-2-yl)amino)-2-(4-(4-methylpiperazin-1-yl)piperidin-1-yl)phenyl)acrylamide] | < 0.01 | 0.01 to 0.1 | 0.01 to 0.05 | < 0.01 | 0.01 to 0.05 | – | –
C=CC(=O)Nc1cc(Nc2ncc(Br)c(Nc3ccc4nccnc4c3P(C)(C)=O)n2)ccc1N1CCC(N2CCN(C)CC2)CC1 [Compound 12, N-(5-((5-bromo-4-((5-(dimethylphosphoryl)quinoxalin-6-yl)amino)pyrimidin-2-yl)amino)-2-(4-(4-methylpiperazin-1-yl)piperidin-1-yl)phenyl)acrylamide] | – | – | 0.01 to 0.05 | – | 0.01 to 0.05 | 0.01 to 0.05 | 0.01 to 0.05
C=C(C)C(=O)Nc1cc(Nc2ncc(Cl)c(Nc3ccccc3P(C)(C)=O)n2)ccc1N1CCC2(CC1)CC(N(C)C)C2 [Compound 7, N-(5-((5-chloro-4-((2-(dimethylphosphoryl)phenyl)amino)pyrimidin-2-yl)amino)-2-(2-(dimethylamino)-7-azaspiro[3.5]nonan-7-yl)phenyl)methacrylamide] | < 0.01 | – | 0.01 to 0.05 | – | 0.01 to 0.05 | – | 0.01 to 0.05
C=CC(=O)Nc1cc(Nc2ncc(C)c(Nc3ccccc3P(C)(C)=O)n2)ccc1N1CCC(N2CCN(C)CC2)CC1 [Compound 20, N-(5-((4-((2-(dimethylphosphoryl)phenyl)amino)-5-methylpyrimidin-2-yl)amino)-2-(4-(4-methylpiperazin-1-yl)piperidin-1-yl)phenyl)acrylamide] | < 0.01 | < 0.01 | 0.01 to 0.05 | < 0.01 | < 0.01 | 0.01 to 0.05 | –
C=CC(=O)Nc1cc(Nc2ncc(Cl)c(Nc3ccccc3P(C)(C)=O)n2)ccc1OC1CCN(C)CC1 [Compound 41, N-(5-((5-chloro-4-((2-(dimethylphosphoryl)phenyl)amino)pyrimidin-2-yl)amino)-2-((1-methylpiperidin-4-yl)oxy)phenyl)acrylamide] | < 0.01 | 0.01 to 0.1 | – | < 0.01 | 0.01 to 0.05 | 0.01 to 0.05 | –
C=CC(=O)Nc1cc(Nc2ncc(Cl)c(Nc3ccccc3P(C)(C)=O)n2)c(OC)cc1N1CCC2(CCC(N(C)C)CC2)CC1 [Compound 33, N-(5-(5-chloro-4-(2-(dimethylphosphoryl)phenylamino)pyrimidin-2-ylamino)-2-(9-(dimethylamino)-3-azaspiro[5.5]undecan-3-yl)-4-methoxyphenyl)acrylamide] | < 0.01 | 0.01 to 0.1 | – | < 0.01 | 0.01 to 0.05 | 0.01 to 0.05 | –
C=CC(=O)N(C)c1cc(Nc2ncc(Cl)c(Nc3ccccc3P(C)(C)=O)n2)ccc1N1CCC2(CC1)CC(N(C)C)C2 [Compound 6, N-(5-((5-chloro-4-((2-(dimethylphosphoryl)phenyl)amino)pyrimidin-2-yl)amino)-2-(2-(dimethylamino)-7-azaspiro[3.5]nonan-7-yl)phenyl)-N-methylacrylamide] | < 0.01 | – | 0.01 to 0.05 | – | – | – | –
C=CC(=O)Nc1cc(Nc2nccc(Nc3ccccc3P(C)(C)=O)n2)ccc1N(C)CCN(C)C [Compound 37, N-(2-((2-(dimethylamino)ethyl)(methyl)amino)-5-((4-((2-(dimethylphosphoryl)phenyl)amino)pyrimidin-2-yl)amino)phenyl)acrylamide] | 0.01 to 0.1 | < 0.01 | – | < 0.01 | < 0.01 | 0.01 to 0.05 | –
C=CC(=O)Nc1cc(Nc2ncc(C)c(Nc3ccccc3P(C)(C)=O)n2)c(OC)cc1N(C)CCN(C)C [Compound 21, N-(2-((2-(dimethylamino)ethyl)(methyl)amino)-5-((4-((2-(dimethylphosphoryl)phenyl)amino)-5-methylpyrimidin-2-yl)amino)-4-methoxyphenyl)acrylamide] | 0.01 to 0.1 | < 0.01 | – | < 0.01 | < 0.01 | 0.01 to 0.05 | –
C=CC(=O)Nc1cc(Nc2ncc(Cl)c(Nc3ccccc3P(C)(C)=O)n2)c(OC)cc1N1CCC2(CC1)CC(N(C)C)C2 [Compound 5, N-(5-((5-chloro-4-((2-(dimethylphosphoryl)phenyl)amino)pyrimidin-2-yl)amino)-2-(2-(dimethylamino)-7-azaspiro[3.5]nonan-7-yl)-4-methoxyphenyl)acrylamide] | < 0.01 | 0.01 to 0.1 | – | < 0.01 | 0.01 to 0.05 | < 0.01 | –
